Data taken from patent publication US20080269282A1, “Compounds for Inhibiting Copper-Containing Amine Oxidases and Uses Thereof” (GENMEDICA THERAPEUTICS SL, priority 2004, published 2008).

Biological target: T1, Human SSAO (Homo sapiens, UniProt Q16853)
T1 construct: Human or mice adipose tissue homogenates, used as a source of SSAO activity; from tissue; host or cells: human adipose tissue homogenate
T1 sequence (Q16853 1-763): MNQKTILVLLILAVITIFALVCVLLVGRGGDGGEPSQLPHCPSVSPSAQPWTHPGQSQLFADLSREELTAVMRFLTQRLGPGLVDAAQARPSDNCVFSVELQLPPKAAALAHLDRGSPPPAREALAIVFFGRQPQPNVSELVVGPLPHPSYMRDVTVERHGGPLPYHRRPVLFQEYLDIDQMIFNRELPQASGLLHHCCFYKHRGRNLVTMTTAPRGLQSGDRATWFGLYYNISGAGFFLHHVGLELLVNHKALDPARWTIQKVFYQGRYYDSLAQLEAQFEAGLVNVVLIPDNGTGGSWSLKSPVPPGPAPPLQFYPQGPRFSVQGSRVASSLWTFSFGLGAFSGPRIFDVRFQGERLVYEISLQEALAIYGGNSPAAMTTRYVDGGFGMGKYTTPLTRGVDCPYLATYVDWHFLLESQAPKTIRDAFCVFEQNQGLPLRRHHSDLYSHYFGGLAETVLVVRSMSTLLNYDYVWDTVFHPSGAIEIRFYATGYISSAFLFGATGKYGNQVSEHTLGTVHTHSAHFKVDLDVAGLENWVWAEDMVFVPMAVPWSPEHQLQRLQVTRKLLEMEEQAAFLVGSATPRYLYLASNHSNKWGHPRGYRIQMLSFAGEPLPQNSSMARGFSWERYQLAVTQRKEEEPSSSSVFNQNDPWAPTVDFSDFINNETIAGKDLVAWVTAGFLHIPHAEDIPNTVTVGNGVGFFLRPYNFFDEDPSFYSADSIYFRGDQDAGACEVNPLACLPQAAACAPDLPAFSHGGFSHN
Experiment: SSAO activity determination (Amplex Red/HRP detection of H2O2 from benzylamine oxidation)
Assay type: biochemical
Settings: human adipose tissue homogenate, benzylamine substrate, 37° C., 20 min preincubation
Procedure: SSAO activity determination: All assays were performed at 37° C. with SSAO from human or mice adipose tissue. The enzyme activity was measured through detection of hydrogen peroxide formed by the oxidation of benzylamine. This method is based on the horseradish peroxidase catalyzed hydrogen peroxide oxidation of 10-acetyl-3,7-dihydroxyphenoxazine (Molecular Probes A-6550), that produces resorufin a highly fluorescent product (excitation, 545 nm; emission, 590 nm) (Zhou and Panchuk-Voloshina, 1997). Human or mice adipose tissue homogenates, used as a source of SSAO activity, were preincubated in 96 well microplates for 20 min at 37° C. in 180 μL of 200 mM Phosphate buffer and H2O2-detecting mixture containing horseradish peroxidase (final concentration 1 U/mL) and Amplex Red reagent (60 μM) and different concentrations of inhibitors when necessary. […] Fluorescence intensity of the samples was measured continuously during 1 h (excitation, 545 nm; emission, 590 nm) and H2O2 concentration was calculated from calibration curves generated by serial dilutions of standard H2O2. […]
The inhibition was measured as % decrease of the signal compared to a control without inhibitor. Blank values in absence of substrates were subtracted from the fluorescence for each experimental condition. The IC50 shown in Table 1 were calculated with GraphPad Prism 4 program.

IC50: 0.033 ± 0.006 µM
SMILES: Cc1[nH]c2ccccc2c1CC(=O)NCC(=O)NO [compound 4]
